Test results published in the NIST ThermoML archive (doi:10.1021/je400423u).

Test: xn = mol fraction of the nth substance listed
Conditions: 101 kPa, Liquid; for viscosity: Falling or rolling sphere viscometry; for mass density: Vibrating tube method

CC(C)(C)O [2-methylpropan-2-ol] + CCC(C)O
Conditions | mass density [kg/m3] | viscosity [mPa·s]
308.15 K, x2 = 0 | 770.36 | 2.589
308.15 K, x2 = 0.1002 | 772.862 | 2.511
308.15 K, x2 = 0.2001 | 775.563 | 2.462
308.15 K, x2 = 0.3008 | 778.356 | 2.414
308.15 K, x2 = 0.3999 | 781.092 | 2.368
308.15 K, x2 = 0.5005 | 783.761 | 2.322
308.15 K, x2 = 0.6004 | 786.229 | 2.278
308.15 K, x2 = 0.6999 | 788.492 | 2.237
308.15 K, x2 = 0.8009 | 790.567 | 2.199
308.15 K, x2 = 0.8998 | 792.397 | 2.168
313.15 K, x2 = 0 | 765.07 | 2.089
313.15 K, x2 = 0.1002 | 767.728 | 2.032
313.15 K, x2 = 0.2001 | 770.539 | 2.001
313.15 K, x2 = 0.3008 | 773.423 | 1.97
313.15 K, x2 = 0.3999 | 776.226 | 1.941
313.15 K, x2 = 0.5005 | 778.999 | 1.912
313.15 K, x2 = 0.6004 | 781.558 | 1.886
313.15 K, x2 = 0.6999 | 783.915 | 1.863
313.15 K, x2 = 0.8009 | 786.091 | 1.843
313.15 K, x2 = 0.8998 | 787.978 | 1.828
318.15 K, x2 = 0 | 759.67 | 1.69
318.15 K, x2 = 0.1002 | 762.547 | 1.671
318.15 K, x2 = 0.2001 | 765.501 | 1.651
318.15 K, x2 = 0.3008 | 768.478 | 1.632
318.15 K, x2 = 0.3999 | 771.356 | 1.613
318.15 K, x2 = 0.5005 | 774.194 | 1.596
318.15 K, x2 = 0.6004 | 776.85 | 1.581
318.15 K, x2 = 0.6999 | 779.306 | 1.569
318.15 K, x2 = 0.8009 | 781.558 | 1.56
318.15 K, x2 = 0.8998 | 783.501 | 1.554
323.15 K, x2 = 0 | 754.19 | 1.409
323.15 K, x2 = 0.1002 | 757.329 | 1.393
323.15 K, x2 = 0.2001 | 760.468 | 1.382
323.15 K, x2 = 0.3008 | 763.574 | 1.371
323.15 K, x2 = 0.3999 | 766.546 | 1.36
323.15 K, x2 = 0.5005 | 769.452 | 1.351
323.15 K, x2 = 0.6004 | 772.176 | 1.343
323.15 K, x2 = 0.6999 | 774.689 | 1.338
323.15 K, x2 = 0.8009 | 776.998 | 1.334
323.15 K, x2 = 0.8998 | 778.948 | 1.333
328.15 K, x2 = 0 | 748.62 | –
328.15 K, x2 = 0.1002 | 752.053 | 1.178
328.15 K, x2 = 0.2001 | 755.328 | 1.171
328.15 K, x2 = 0.3008 | 758.481 | 1.164
328.15 K, x2 = 0.3999 | 761.481 | 1.158
328.15 K, x2 = 0.5005 | 764.427 | 1.154
328.15 K, x2 = 0.6004 | 767.214 | 1.151
328.15 K, x2 = 0.6999 | 769.823 | 1.15
328.15 K, x2 = 0.8009 | 772.229 | 1.15
328.15 K, x2 = 0.8998 | 774.252 | 1.153
333.15 K, x2 = 0 | 742.95 | –
333.15 K, x2 = 0.1002 | 746.671 | 1.007
333.15 K, x2 = 0.2001 | 750.068 | 1.003
333.15 K, x2 = 0.3008 | 753.262 | 0.9994
333.15 K, x2 = 0.3999 | 756.271 | 0.9962
333.15 K, x2 = 0.5005 | 759.241 | 0.9947
333.15 K, x2 = 0.6004 | 762.081 | 0.9943
333.15 K, x2 = 0.6999 | 764.795 | 0.996
333.15 K, x2 = 0.8009 | 767.312 | 0.9994
333.15 K, x2 = 0.8998 | 769.418 | 1.004
338.15 K, x2 = 0 | 737.19 | –
338.15 K, x2 = 0.1002 | 741.149 | 0.8692
338.15 K, x2 = 0.2001 | 744.63 | 0.8679
338.15 K, x2 = 0.3008 | 747.865 | 0.8665
338.15 K, x2 = 0.3999 | 750.893 | 0.8654
338.15 K, x2 = 0.5005 | 753.913 | 0.8659
338.15 K, x2 = 0.6004 | 756.832 | 0.8678
338.15 K, x2 = 0.6999 | 759.643 | 0.8713
338.15 K, x2 = 0.8009 | 762.272 | 0.876
338.15 K, x2 = 0.8998 | 764.451 | 0.8813
343.15 K, x2 = 0 | 731.31 | –
343.15 K, x2 = 0.1002 | 735.411 | 0.7586
343.15 K, x2 = 0.2001 | 738.998 | 0.7589
343.15 K, x2 = 0.3008 | 742.315 | 0.7593
343.15 K, x2 = 0.3999 | 745.431 | 0.7601
343.15 K, x2 = 0.5005 | 748.529 | 0.7616
343.15 K, x2 = 0.6004 | 751.539 | 0.7648
343.15 K, x2 = 0.6999 | 754.435 | 0.769
343.15 K, x2 = 0.8009 | 757.148 | 0.7743
343.15 K, x2 = 0.8998 | 759.383 | 0.7798
